Laboratory results as given in patent US20230117034A1, “PYRAZOLOTRIAZINES” (Bayer Aktiengesellschaft, priority 2019, published 2023).

Assays:
Type in all cases: cell-based
[1] = biological target: T1, CDK12 (nuclear staining in CAL-120 cells) (Homo sapiens, UniProt Q9NYV4); test: CDK12 nuclear protein level: immunofluorescence/high content analysis (CAL-120); details: for DC50: CAL-120 cells, 24 h, immunofluorescence, 50% reduction of nuclear CDK12 staining intensity, median, read-out: CDK12 degradation IF, DC50- [mol/l] (median); for (IC50 CDK12 high ATP) to (Degradation DC50 CDK12) ratio: ratio of IC50 CDK12 high ATP kinase assay to DC50 CDK12 degradation (IF, CAL-120)
T1 construct: endogenous in cells; host or cells: CAL-120 human breast cancer cells (DSMZ ACC 459)
Procedure, shortened: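 DC50 is the degrader concentration that halves nuclear CDK12 immunofluorescence relative to controls, measured by high-content imaging. CAL-120 cells were exposed to compound for 24 h at 37 °C before PFA fixation, and signal was normalized to DMSO and control wells.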

[2] = biological target: T2, CDK12 protein level in CAL-120 breast cancer cells (Homo sapiens, UniProt Q9NYV4); test: CDK12 protein level: Protein Simple (CDK12, CAL-120); details: CAL-120 cells, 18 h with compound, CDK12/HSP90 peak area ratio vs vehicle, median, read-out: CDK12 protein level in CAL-120 breast ca cells, DC50-[mol/l] (median)
T2 construct: endogenous in cells; host or cells: CAL-120 human breast cancer cells (DSMZ ACC 459)
Procedure: CAL-120 human breast cancer cells (DSMZ ACC 459) were seeded at 300,000 cells/well in 6-well plates containing 2 mL of growth medium (DMEM, 10% FCS, glutamine) and incubated for 24 h at 37° C. in an humidified incubator. Test compounds were added at various concentrations, control wells received solvent (DMSO), and the plates were incubated for another 18 h at 37° C. Cells were washed 2 times with PBS and lysed in 75 microL lysis buffer (MSD-Puffer (MSD, #R60TX-2), +1% 505S+PhosSTOP (Roche #04906837001)+complete mini (Roche #04693159001)) by scraping. The lysates were pushed 2 times through Qiashedders followed by centrifugation at 14,000 rpm for 30-50 sec. The supernatant was stored at −20° C. Proteins were separated by applying 0.4 microgramms of protein lysate to Protein Simple 66-440 kDa (Protein Simple #SM-S002) size assay columns on a PEGGY SUE or SALLY SUE equipment according to the supplier's manual. CDK12 and HSP90 (loading control) were detected using anti-human CDK12 antibody (Cell Signaling Technologies (CST) #11793) at 1:25 dilution and anti-human HSP90 antibody (CST #4877) at 1:5,000 dilution. CDK12 and HSP90 peak areas were determined using Protein Simple Compass software. Ratio of CDK12/HSP90 peak areas were calculated for each sample, and […] values (degrading concentration to achieve 50% reduction relative to vehicle treated control) were determined by means of a 4 parameter fit.

[3] = test system: MDA-MB-231, human breast cancer cells; test: Proliferation assay MDA-MB-231 (crystal violet, 4 days); details: Homo sapiens, MDA-MB-231, 96 h, MDA-MB-231 cells, median, read-out: Prolif-MDA MB-231, IC50-[mol/l] (median)
Procedure: Human tumour cells were originally obtained from the American Type Culture Collection (ATCC), or from the Deutsche Sammlung von Mikroorganismen und Zellkulturen (DSMZ, German Collection of Microorganisms and Cell Cultures). Cultivated tumour cells (CAL-120, human breast adenocarcinoma cells, DSMZ ACC-459; MDA-MB-231, human breast cancer cells, ATCC HTB-26) were plated at a density of 4,000 cells/well in a 96-well multititer plate in 200 microL of their respective growth medium supplemented 10% fetal calf serum. After 24 hours, the cells of one plate (zero-point plate) were stained with crystal violet (see below), while the medium of the other plates was supplemented with the test substances in various concentrations (0 micromol/L, as well as in the range of 0.01-10 micromol/L; the final concentration of the solvent dimethyl sulfoxide was adjusted to 0.1%) using a Tecan HP D300 Digital Dispenser. The cells were incubated for 4 days in the presence of test substances. Cell proliferation was determined by staining the cells with crystal violet: the cells were fixed by adding 20 microL/measuring point of an 11% glutaric aldehyde solution for 15 minutes at room temperature. After three washing cycles of the fixed cells with water, the plates were dried at room temperature. The cells were stained by adding 100 microL/measuring point of a 0.1% crystal violet solution (pH 3.0). After three washing cycles of the stained cells with water, the plates were dried at room temperature. The dye was dissolved by adding 100 microL/measuring point of a 10% acetic acid solution. The extinction was determined by photometry at a wavelength of 595 nm. The change of cell number, in percent, was calculated by normalization of the measured values to the extinction values of the zero-point plate (=0%) and the extinction of the untreated (0 μM) cells (=100%). The IC50 values (inhibitory concentration at 50% of maximal effect) were determined by means of a 4 parameter fit.

T1 sequence (Q9NYV4 whole entry): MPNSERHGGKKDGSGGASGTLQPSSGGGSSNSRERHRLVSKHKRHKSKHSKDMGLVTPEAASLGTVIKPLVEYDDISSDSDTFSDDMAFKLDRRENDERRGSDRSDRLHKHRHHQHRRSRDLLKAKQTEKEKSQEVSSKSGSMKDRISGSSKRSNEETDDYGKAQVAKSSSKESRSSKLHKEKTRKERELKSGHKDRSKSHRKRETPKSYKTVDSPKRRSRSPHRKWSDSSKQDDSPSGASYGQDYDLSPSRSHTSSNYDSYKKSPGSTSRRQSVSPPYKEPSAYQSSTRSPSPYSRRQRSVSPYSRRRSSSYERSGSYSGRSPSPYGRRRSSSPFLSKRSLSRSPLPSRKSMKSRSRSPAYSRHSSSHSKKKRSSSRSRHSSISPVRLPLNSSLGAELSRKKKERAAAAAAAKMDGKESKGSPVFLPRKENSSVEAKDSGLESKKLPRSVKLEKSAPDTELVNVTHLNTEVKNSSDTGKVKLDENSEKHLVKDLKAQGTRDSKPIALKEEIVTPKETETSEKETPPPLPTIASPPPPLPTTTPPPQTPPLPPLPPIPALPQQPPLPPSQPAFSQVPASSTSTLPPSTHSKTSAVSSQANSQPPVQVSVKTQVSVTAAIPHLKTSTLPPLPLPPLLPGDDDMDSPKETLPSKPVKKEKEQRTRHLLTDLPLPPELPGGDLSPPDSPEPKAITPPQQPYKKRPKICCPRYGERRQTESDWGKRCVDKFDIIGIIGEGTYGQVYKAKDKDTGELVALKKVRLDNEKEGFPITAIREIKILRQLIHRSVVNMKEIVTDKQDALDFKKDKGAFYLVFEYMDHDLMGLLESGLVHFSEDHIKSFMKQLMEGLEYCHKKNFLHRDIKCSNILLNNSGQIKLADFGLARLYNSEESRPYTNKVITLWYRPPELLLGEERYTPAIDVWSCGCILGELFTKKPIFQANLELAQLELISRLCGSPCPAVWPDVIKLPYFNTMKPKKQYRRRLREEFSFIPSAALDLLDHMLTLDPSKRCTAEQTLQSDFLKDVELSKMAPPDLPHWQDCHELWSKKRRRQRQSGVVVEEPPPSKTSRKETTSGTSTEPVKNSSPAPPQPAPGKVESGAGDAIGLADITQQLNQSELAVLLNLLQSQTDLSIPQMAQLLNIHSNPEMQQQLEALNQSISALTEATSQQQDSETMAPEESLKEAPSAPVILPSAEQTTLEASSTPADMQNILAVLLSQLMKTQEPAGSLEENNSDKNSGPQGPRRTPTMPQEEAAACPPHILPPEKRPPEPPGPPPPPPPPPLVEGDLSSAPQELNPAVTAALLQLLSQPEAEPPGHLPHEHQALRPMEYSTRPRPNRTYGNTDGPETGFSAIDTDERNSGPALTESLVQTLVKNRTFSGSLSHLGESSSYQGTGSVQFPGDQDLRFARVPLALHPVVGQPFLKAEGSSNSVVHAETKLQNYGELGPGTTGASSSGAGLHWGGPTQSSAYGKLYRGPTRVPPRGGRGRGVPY
T1 sequence (O75909 whole entry partner): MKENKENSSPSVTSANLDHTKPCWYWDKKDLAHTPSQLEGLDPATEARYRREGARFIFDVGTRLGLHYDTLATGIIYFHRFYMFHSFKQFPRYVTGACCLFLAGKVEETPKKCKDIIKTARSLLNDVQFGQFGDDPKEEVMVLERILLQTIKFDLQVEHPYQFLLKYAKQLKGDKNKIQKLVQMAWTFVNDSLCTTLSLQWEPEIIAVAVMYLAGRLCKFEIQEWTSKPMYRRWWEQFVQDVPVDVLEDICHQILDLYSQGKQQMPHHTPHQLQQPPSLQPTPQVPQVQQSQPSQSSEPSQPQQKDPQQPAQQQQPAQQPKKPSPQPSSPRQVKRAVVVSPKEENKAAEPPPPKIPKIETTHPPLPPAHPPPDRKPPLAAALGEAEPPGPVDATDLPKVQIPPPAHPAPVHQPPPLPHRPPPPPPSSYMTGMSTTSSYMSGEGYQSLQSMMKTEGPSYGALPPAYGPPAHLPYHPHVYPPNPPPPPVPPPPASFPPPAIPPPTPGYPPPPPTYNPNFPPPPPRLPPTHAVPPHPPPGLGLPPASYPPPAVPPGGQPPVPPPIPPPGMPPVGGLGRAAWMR
T2 sequence (Q9NYV4 whole entry): as the sequence (Q9NYV4 whole entry) above
T2 sequence (O75909 whole entry partner): as the sequence (O75909 whole entry partner) above

Row | SMILES | DC50 [1] | (IC50 CDK12 high ATP) to (Degradation DC50 CDK12) ratio [1] | DC50 [2] | IC50 [3]
1 | CN1CCN(c2nc(NCc3nc4cc(F)ccc4[nH]3)n3ncc(C4CC4)c3n2)CC1 [Example 164, 8-cyclopropyl-N-[(5-fluoro-1H-benzimidazol-2-yl)methyl]-2-(4-methylpiperazin-1-yl)pyrazolo[1,5-a][1,3,5]triazin-4-amine] | 0.99 nM | >20194 | 1.08 nM | 25.7 nM
2 | Brc1cnn2c(NCc3nc4ccccc4[nH]3)nc(N3CCOCC3)nc12 [Example 4, N-[(1H-benzimidazol-2-yl)methyl]-8-bromo-2-(morpholin-4-yl)pyrazolo[1,5-a][1,3,5]triazin-4-amine] | 1.07 nM | 1628 | 0.476 nM | 25.3 nM
3 | NCCc1cccc2[nH]c(CNc3nc(N4CCOCC4)nc4c(Br)cnn34)nc12 [Example 112, N-{[7-(2-aminoethyl)-1H-benzimidazol-2-yl]methyl}-8-bromo-2-(morpholin-4-yl)pyrazolo[1,5-a][1,3,5]triazin-4-amine] | 50 nM | 134 | 58.8 nM | 186 nM
